Tested on: MV-4-11 cells
Experiment: Gene expression microarray analysis (Affymetrix PrimeView) and GSEA
Type: cell-based, human
Set-up: RFU PODN (11730768_x_at) / Fold change /veh PODN (11730768_x_at) / RFU LINC00158 (11744669_a_at) / Fold change /veh LINC00158 (11744669_a_at) / RFU DUSP10 (11751237_a_at) / Fold change /veh DUSP10 (11751237_a_at) / RFU ID3 (11757404_x_at) / Fold change /veh ID3 (11757404_x_at) / RFU PLEKHG5 (11737974_s_at) / Fold change /veh PLEKHG5 (11737974_s_at) / RFU LRRC4B (11730491_at) / Fold change /veh LRRC4B (11730491_at) / RFU GIMAP4 (11747438_a_at) / Fold change /veh GIMAP4 (11747438_a_at) / RFU KRT8 (11758183_x_at) / Fold change /veh KRT8 (11758183_x_at) / RFU CNN1 (11734310_a_at) / Fold change /veh CNN1 (11734310_a_at) / RFU VPS37D (11726825_at) / Fold change /veh VPS37D (11726825_at) / RFU C10orf10 (11716522_x_at) / Fold change /veh C10orf10 (11716522_x_at) / RFU KIR2DL2 /// KIR2DL4 /// KIR2DL5A /// KIR2DL5B /// KIR2DS1 /// KIR2DS2 /// KIR2DS3 /// KIR2DS4 /// KIR3DL3 /// KIR3DL3 /// KIR3DS1 (11738374_at) / Fold change /veh KIR2DL2 /// KIR2DL4 /// KIR2DL5A /// KIR2DL5B /// KIR2DS1 /// KIR2DS2 /// KIR2DS3 /// KIR2DS4 /// KIR3DL3 /// KIR3DL3 /// KIR3DS1 (11738374_at) / RFU C1QL1 (11718748_at) / Fold change /veh C1QL1 (11718748_at) / RFU TMPRSS4 (11747572_a_at) / Fold change /veh TMPRSS4 (11747572_a_at) / RFU HAMP (11756126_x_at) / Fold change /veh HAMP (11756126_x_at) / RFU RNFT2 (11725882_a_at) / Fold change /veh RNFT2 (11725882_a_at) / RFU NR4A2 (11747474_a_at) / Fold change /veh NR4A2 (11747474_a_at) / RFU ABCC12 (11746883_a_at) / Fold change /veh ABCC12 (11746883_a_at) / RFU TMEM136 (11760407_x_at) / Fold change /veh TMEM136 (11760407_x_at) / RFU CLDN22 /// WWC2 (11732394_at) / Fold change /veh CLDN22 /// WWC2 (11732394_at) / RFU HLA-DPB1 (11760878_x_at) / Fold change /veh HLA-DPB1 (11760878_x_at) / RFU SPINT1 (11716480_a_at) / Fold change /veh SPINT1 (11716480_a_at) / RFU GAP43 (11754022_s_at) / Fold change /veh GAP43 (11754022_s_at) / RFU A4GNT (11735810_at) / Fold change /veh A4GNT (11735810_at) / RFU PRB3 (11715151_x_at) / Fold change /veh PRB3 (11715151_x_at) / RFU TUBB4B (11761932_at) / Fold change /veh TUBB4B (11761932_at) / RFU CAPN14 (11732068_a_at) / Fold change /veh CAPN14 (11732068_a_at) / RFU TMCC2 (11721928_a_at) / Fold change /veh TMCC2 (11721928_a_at) / RFU IRGQ (11745062_a_at) / Fold change /veh IRGQ (11745062_a_at) / RFU FAM174B (11720279_a_at) / Fold change /veh FAM174B (11720279_a_at) / RFU TMPRSS4 (11748680_a_at) / Fold change /veh TMPRSS4 (11748680_a_at) / RFU FAM212B (11763350_a_at) / Fold change /veh FAM212B (11763350_a_at) / RFU PLEKHG5 (11743358_a_at) / Fold change /veh PLEKHG5 (11743358_a_at) / RFU ZSCAN30 (11745921_a_at) / Fold change /veh ZSCAN30 (11745921_a_at) / RFU CMKLR1 (11741424_a_at) / Fold change /veh CMKLR1 (11741424_a_at) / RFU LOC101060620 /// MAPK8IP1 (11723275_at) / Fold change /veh LOC101060620 /// MAPK8IP1 (11723275_at) / RFU SPTSSB (11747773_x_at) / Fold change /veh SPTSSB (11747773_x_at) / RFU PRSS12 (11739890_at) / Fold change /veh PRSS12 (11739890_at) / RFU BIN1 (11741810_x_at) / Fold change /veh BIN1 (11741810_x_at) / RFU WNT11 (11732464_a_at) / Fold change /veh WNT11 (11732464_a_at) / RFU C10orf10 (11716521_a_at) / Fold change /veh C10orf10 (11716521_a_at) / RFU C5orf56 (11738089_at) / Fold change /veh C5orf56 (11738089_at) / RFU CYB561 (11721691_x_at) / Fold change /veh CYB561 (11721691_x_at) / RFU ANKRD19P (11752326_a_at) / Fold change /veh ANKRD19P (11752326_a_at) / RFU OR2T12 /// OR2T33 /// OR2T8 (11738714_s_at) / Fold change /veh OR2T12 /// OR2T33 /// OR2T8 (11738714_s_at) / RFU VCAN (11748164_a_at) / Fold change /veh VCAN (11748164_a_at) / RFU JSRP1 (11732532_at) / Fold change /veh JSRP1 (11732532_at) / RFU KRTAP10-11 (11738290_x_at) / Fold change /veh KRTAP10-11 (11738290_x_at) / RFU MYO3A (11730013_a_at) / Fold change /veh MYO3A (11730013_a_at) / RFU EBF3 (11725865_a_at) / Fold change /veh EBF3 (11725865_a_at) / RFU CAMK2N1 (11719241_x_at) / Fold change /veh CAMK2N1 (11719241_x_at) / RFU C5orf56 (11738088_a_at) / Fold change /veh C5orf56 (11738088_a_at) / RFU OLFML3 (11715873_a_at) / Fold change /veh OLFML3 (11715873_a_at) / RFU LOC100653217 /// NTM (11731650_a_at) / Fold change /veh LOC100653217 /// NTM (11731650_a_at) / RFU MAPK11 (11762145_a_at) / Fold change /veh MAPK11 (11762145_a_at) / RFU FIZ1 (11724087_x_at) / Fold change /veh FIZ1 (11724087_x_at) / RFU OASL (11726364_x_at) / Fold change /veh OASL (11726364_x_at) / RFU SOX15 (11748057_x_at) / Fold change /veh SOX15 (11748057_x_at) / RFU CD79A (11719716_a_at) / Fold change /veh CD79A (11719716_a_at) / RFU HIST1H1D (11736915_at) / Fold change /veh HIST1H1D (11736915_at) / RFU CASKIN2 (11723855_a_at) / Fold change /veh CASKIN2 (11723855_a_at) / RFU LOC730098 (11760151_x_at) / Fold change /veh LOC730098 (11760151_x_at) / RFU OR4N2 (11742367_at) / Fold change /veh OR4N2 (11742367_at) / RFU PRRT2 (11749266_a_at) / Fold change /veh PRRT2 (11749266_a_at) / RFU SNX32 (11753110_a_at) / Fold change /veh SNX32 (11753110_a_at) / RFU CDHR5 (11726645_a_at) / Fold change /veh CDHR5 (11726645_a_at) / RFU RCAN1 (11760418_a_at) / Fold change /veh RCAN1 (11760418_a_at) / RFU FAM167A (11723789_a_at) / Fold change /veh FAM167A (11723789_a_at) / RFU FAM26E (11764081_at) / Fold change /veh FAM26E (11764081_at) / RFU ISYNA1 (11749810_s_at) / Fold change /veh ISYNA1 (11749810_s_at) / RFU ACY1 (11761880_at) / Fold change /veh ACY1 (11761880_at) / RFU 11764098_at / Fold change /veh 11764098_at / RFU SAMD14 (11745864_x_at) / Fold change /veh SAMD14 (11745864_x_at) / RFU NPB (11741838_a_at) / Fold change /veh NPB (11741838_a_at) / RFU TMPRSS6 (11731388_a_at) / Fold change /veh TMPRSS6 (11731388_a_at) / RFU KRTAP10-2 (11738614_at) / Fold change /veh KRTAP10-2 (11738614_at) / RFU ARHGAP8 /// PRR5-ARHGAP8 (11727945_x_at) / Fold change /veh ARHGAP8 /// PRR5-ARHGAP8 (11727945_x_at) / RFU KRTAP5-7 /// NADSYN1 (11734609_at) / Fold change /veh KRTAP5-7 /// NADSYN1 (11734609_at) / RFU RASL12 (11751679_a_at) / Fold change /veh RASL12 (11751679_a_at) / RFU CDKN2B (11736163_a_at) / Fold change /veh CDKN2B (11736163_a_at) / RFU PRF1 (11729649_at) / Fold change /veh PRF1 (11729649_at) / RFU, ZNF638 /// ZNF638-IT1 / Fold change vs veh, ZNF638 /// ZNF638-IT1 / RFU, PANK3 / Fold change vs veh, PANK3 / RFU, SH3YL1 / Fold change vs veh, SH3YL1 / RFU, ZEB2 / Fold change vs veh, ZEB2 / RFU, NRIP1 / Fold change vs veh, NRIP1 / RFU, PTTG1IP / Fold change vs veh, PTTG1IP / RFU, CAPN2 / Fold change vs veh, CAPN2 / RFU, MED14 / Fold change vs veh, MED14 / RFU, SNORA58 / Fold change vs veh, SNORA58 / RFU, C1orf63 / Fold change vs veh, C1orf63 / RFU, LRRFIP1 / Fold change vs veh, LRRFIP1 / RFU, NDUFAF7 / Fold change vs veh, NDUFAF7 / RFU, SLC12A2 / Fold change vs veh, SLC12A2 / RFU, IBTK / Fold change vs veh, IBTK / RFU, ESF1 / Fold change vs veh, ESF1 / Fold change vs veh, TMEM50B / RFU, TAOK1 / Fold change vs veh, TAOK1 / RFU, ACBD3 / Fold change vs veh, ACBD3 / RFU, TMA16 / Fold change vs veh, TMA16 / RFU, RWDD3 / Fold change vs veh, RWDD3 / RFU, BCAT1 / Fold change vs veh, BCAT1 / RFU, EDEM3 / Fold change vs veh, EDEM3 / RFU, TMEM33 / Fold change vs veh, TMEM33 / RFU, WDR75 / Fold change vs veh, WDR75 / RFU, AHCTF1 / Fold change vs veh, AHCTF1 / RFU, TFRC / Fold change vs veh, TFRC / RFU, ZDHHC17 / Fold change vs veh, ZDHHC17 / RFU, NOM1 / Fold change vs veh, NOM1 / RFU, ARL8B / Fold change vs veh, ARL8B / RFU, ZBTB11 / Fold change vs veh, ZBTB11 / RFU, TAMM41 / Fold change vs veh, TAMM41 / RFU, KIAA1704 /// LOC100996395 / Fold change vs veh, KIAA1704 /// LOC100996395 / RFU, ING1 / Fold change vs veh, ING1 / RFU, TRMT61B / Fold change vs veh, TRMT61B / RFU, FUBP3 / Fold change vs veh, FUBP3 / RFU, TP53 / Fold change vs veh, TP53 / RFU, TNKS2 / Fold change vs veh, TNKS2 / RFU, ZFP14 / Fold change vs veh, ZFP14 / RFU, ACTR2 / Fold change vs veh, ACTR2 / RFU, PPP3R1 / Fold change vs veh, PPP3R1 / RFU, PIK3R1 / Fold change vs veh, PIK3R1 / RFU, HNRNPA1 / Fold change vs veh, HNRNPA1 / RFU, RNF170 / Fold change vs veh, RNF170 / RFU, ZNF28 / Fold change vs veh, ZNF28 / RFU, RNGTT / Fold change vs veh, RNGTT / RFU, OGT / Fold change vs veh, OGT / RFU, BRD1 / Fold change vs veh, BRD1 / RFU, MARS / Fold change vs veh, MARS / RFU, ZNF655 / Fold change vs veh, ZNF655 / RFU, FAHD1 / Fold change vs veh, FAHD1 / RFU, BDP1 / Fold change vs veh, BDP1 / RFU, LRRCC1 / Fold change vs veh, LRRCC1 / RFU, ARID1A / Fold change vs veh, ARID1A / RFU, ZNF146 / Fold change vs veh, ZNF146 / RFU, ZNF330 / Fold change vs veh, ZNF330 / RFU, GPN3 / Fold change vs veh, GPN3 / RFU, C9orf123 / Fold change vs veh, C9orf123 / RFU, N4BP2L2 / Fold change vs veh, N4BP2L2 / RFU, ARFIP1 / Fold change vs veh, ARFIP1 / RFU, FAM179B / Fold change vs veh, FAM179B / RFU, BCL10 / Fold change vs veh, BCL10 / RFU, UHRF1BP1L / Fold change vs veh, UHRF1BP1L / RFU, BET1 / Fold change vs veh, BET1 / RFU, CNOT2 / Fold change vs veh, CNOT2 / RFU, ZNF268 / Fold change vs veh, ZNF268 / Fold change vs veh, ZNF507 / RFU, DGCR2 / Fold change vs veh, DGCR2 / RFU, WDSUB1 / Fold change vs veh, WDSUB1 / Fold change vs veh, HSP90B1 /// MIR3652 / RFU, ADSS / Fold change vs veh, ADSS / RFU, GK / Fold change vs veh, GK / RFU, ZNF148 / Fold change vs veh, ZNF148 / RFU, TAF9 / Fold change vs veh, TAF9 / RFU, SLC1A5 / Fold change vs veh, SLC1A5 / RFU, SLMO2 / Fold change vs veh, SLMO2 / RFU, ABCC4 / Fold change vs veh, ABCC4 / RFU, LOC101060439 /// RAP1B / Fold change vs veh, LOC101060439 /// RAP1B / RFU, RFX7 / Fold change vs veh, RFX7 / RFU, GTPBP10 / Fold change vs veh, GTPBP10 / RFU, CNEP1R1 / Fold change vs veh, CNEP1R1 / RFU, BIVM-ERCC5 /// ERCC5 / Fold change vs veh, BIVM-ERCC5 /// ERCC5 / RFU, ILF3 / Fold change vs veh, ILF3 / RFU 11762660_at / Fold change /veh 11762660_at / RFU VCAN (11757783_s_at) / Fold change /veh VCAN (11757783_s_at) / RFU DDX43 (11728927_at) / Fold change /veh DDX43 (11728927_at) / RFU KRT8 (11758188_x_at) / Fold change /veh KRT8 (11758188_x_at) / RFU NKD1 (11759106_at) / Fold change /veh NKD1 (11759106_at) / RFU SRD5A1 (11742802_a_at) / Fold change /veh SRD5A1 (11742802_a_at) / RFU TPSAB1 /// TPSB2 (11721975_s_at) / Fold change /veh TPSAB1 /// TPSB2 (11721975_s_at) / RFU GSTM3 (11746129_a_at) / Fold change /veh GSTM3 (11746129_a_at) / RFU IL23R (11737362_x_at) / Fold change /veh IL23R (11737362_x_at) / RFU TMEM51 (11727254_a_at) / Fold change /veh TMEM51 (11727254_a_at) / RFU PIWIL2 (11732686_x_at) / Fold change /veh PIWIL2 (11732686_x_at) / RFU ORM1 (11744905_x_at) / Fold change /veh ORM1 (11744905_x_at) / RFU CCDC152 (11743942_at) / Fold change /veh CCDC152 (11743942_at) / RFU ECM1 (11717891_a_at) / Fold change /veh ECM1 (11717891_a_at) / RFU IL23R (11748794_a_at) / Fold change /veh IL23R (11748794_a_at) / RFU TNFAIP8L3 (11732012_x_at) / Fold change /veh TNFAIP8L3 (11732012_x_at) / RFU MBOAT4 (11741988_at) / Fold change /veh MBOAT4 (11741988_at) / RFU 11764193_at / Fold change /veh 11764193_at / RFU TMEM53 (11763286_at) / Fold change /veh TMEM53 (11763286_at) / RFU MAGEB2 (11727129_at) / Fold change /veh MAGEB2 (11727129_at) / RFU TMEM200A (11744735_a_at) / Fold change /veh TMEM200A (11744735_a_at) / RFU CCDC152 (11751479_a_at) / Fold change /veh CCDC152 (11751479_a_at) / RFU FAM211A (11726209_a_at) / Fold change /veh FAM211A (11726209_a_at) / RFU RGS16 (11746705_a_at) / Fold change /veh RGS16 (11746705_a_at) / RFU VCAN (11755009_s_at) / Fold change /veh VCAN (11755009_s_at) / RFU RHOB (11743442_s_at) / Fold change /veh RHOB (11743442_s_at) / RFU RGS16 (11720943_a_at) / Fold change /veh RGS16 (11720943_a_at) / RFU RGS16 (11720944_at) / Fold change /veh RGS16 (11720944_at) / RFU, VPS4B / Fold change vs veh, VPS4B / RFU, CREB1 / Fold change vs veh, CREB1 / RFU, DNAJC13 / Fold change vs veh, DNAJC13 / RFU, GNAQ / Fold change vs veh, GNAQ / RFU, CDK5R1 / Fold change vs veh, CDK5R1 / RFU, ZRANB3 / Fold change vs veh, ZRANB3 / RFU, CUL4A / Fold change vs veh, CUL4A / RFU, CCNY / Fold change vs veh, CCNY / RFU, UFL1 / Fold change vs veh, UFL1 / RFU, COG3 / Fold change vs veh, COG3 / RFU, DIAPH2 / Fold change vs veh, DIAPH2 / RFU, SKA2 / Fold change vs veh, SKA2 / RFU, AFF3 / Fold change vs veh, AFF3 / RFU, LMF1 / Fold change vs veh, LMF1 / RFU, IPO11 / Fold change vs veh, IPO11 / RFU, DFFB / Fold change vs veh, DFFB / RFU, FOXP1 / Fold change vs veh, FOXP1 / RFU, CARD8 / Fold change vs veh, CARD8 / RFU, STRN3 / Fold change vs veh, STRN3 / RFU, ADK / Fold change vs veh, ADK / RFU, RASSF2 / Fold change vs veh, RASSF2 / RFU, WIPF1 / Fold change vs veh, WIPF1 / RFU, LARP1B / Fold change vs veh, LARP1B / RFU, RASA1 / Fold change vs veh, RASA1 / RFU, RB1 / Fold change vs veh, RB1 / RFU, PPFIA1 / Fold change vs veh, PPFIA1 / RFU, MAT2A / Fold change vs veh, MAT2A / RFU, CCT5 / Fold change vs veh, CCT5 / RFU, WDR92 / Fold change vs veh, WDR92 / RFU, CUX1 / Fold change vs veh, CUX1 / RFU, TTC7A / Fold change vs veh, TTC7A / RFU, TMEM135 / Fold change vs veh, TMEM135 / RFU, DEPTOR / Fold change vs veh, DEPTOR / RFU, CPM / Fold change vs veh, CPM / RFU, DNAJB6 / Fold change vs veh, DNAJB6 / RFU, CACNA2D3 / Fold change vs veh, CACNA2D3 / RFU, DTX4 / Fold change vs veh, DTX4 / RFU, TFCP2 / Fold change vs veh, TFCP2 / RFU, GMCL1 /// GMCL1P1 / Fold change vs veh, GMCL1 /// GMCL1P1 / RFU, AEBP2 / Fold change vs veh, AEBP2 / RFU, SNHG1 /// SNORD22 /// SNORD25 /// SNORD26 /// SNORD27 /// SNORD28 /// SNORD29 /// SNORD31 / Fold change vs veh, SNHG1 /// SNORD22 /// SNORD25 /// SNORD26 /// SNORD27 /// SNORD28 /// SNORD29 /// SNORD31 / Fold change (Aza/veh), C12orf56 (ProbeSet 11735607_a_at) / Fold change (ACY-1035/veh), C12orf56 (ProbeSet 11735607_a_at) / Fold change (Aza/veh), FGFR1OP (ProbeSet 11751329_s_at) / Fold change (ACY-1035/veh), FGFR1OP (ProbeSet 11751329_s_at) / Fold change (Aza/veh), VPS36 (ProbeSet 11739960_a_at) / Fold change (ACY-1035/veh), VPS36 (ProbeSet 11739960_a_at) / RFU SYPL1 (11715823_x_at) / Fold change /veh SYPL1 (11715823_x_at) / RFU IGFBP7 (11715501_s_at) / Fold change /veh IGFBP7 (11715501_s_at) / RFU REEP3 (11722064_at) / Fold change /veh REEP3 (11722064_at) / RFU IGLL1 (11728026_x_at) / Fold change /veh IGLL1 (11728026_x_at): dose or concentration left out as unconfirmed
Details: ProbeSet 11743286_at; LIST D

Nc1ccc(-c2cccs2)cc1NC(=O)c1ccc2c(c1)cc(C1CC1)n2CCN1CCOCC1 [ACY-1035]
RFU, DTX4: 268.88 RFU

Reference: paper PMC5218480 (PLoS ONE, 2017)
